# Key:
# P. aeruginosa = experiment: Potency of Biapenem with or without Compound I against P. aeruginosa (Example 4); assay type: cell-based
# [1] = Plasma pharmacokinetics of Compound I and Biapenem alone or in combination after 1.5 hour intravenous infusion in Sprague-Dawley rats (Example 3); assay type: in vivo; settings: for Plasma pharmacokinetic parameters, alone versus in combination / AUC / clearance / half-life: Sprague-Dawley rats; for Plasma pharmacokinetic parameters, alone versus in combination: single intravenous infusion; for AUC / clearance / half-life: male, Sprague-Dawley, plasma, iv, 20 mg/kg, 1.5 hour intravenous infusion; for AUC / clearance / half-life / Biapenem Calc. Conc. in plasma: rat; for Biapenem Calc. Conc. in plasma: IV infusion
# Description: Example 3 provides a summary of the pharmacokinetic studies of Compound I alone or in combination with Biapenem following a single intravenous infusion dose in Sprague-Dawley rats. The pharmacokinetics of 20 mg/kg of Compound I, 20 mg/kg of Biapenem, and 20 mg/kg of Compound I in combination with 20 mg/kg of Biapenem after a 1.5 hour intravenous infusion were discussed.
# Biapenem power was purchased from Hisun Pharmaceuticals. Compound I was prepared using the method described in the U.S. Publication 2012/0040932 A1. 20 mg of biapenem was dissolved in 0.1 M NaH2PO4 for a basic stock solution. 100 mg of Compound I was dissolved in 30% 1N NaOH to ˜pH 5.0. For animal studies, these stock solutions were further diluted in 0.9% saline to the appropriate concentration.
# The specifications for animals used on this study were as follows: • Species: Rat • Strain: Sprague-Dawley • Gender: Male • Source: Charles River (Hollister, Calif.) • Number of Animals: 3 per study • Body Weight Range: 230-280 g at the start of the study
# After acclimation, rats (n=3) were administered single 20 mg/kg intravenous infusion doses of Compound I or Biapenem alone or in combination. Doses were infused over 1.5 hours via an indwelling femoral vein cannula. Plasma (˜0.3 mL) samples were collected from each rat at designated time points up to 24 hours. The time points are shown in section 2.9. Blood samples were centrifuged within 5 min of collection at 12000 g for 5 min to obtain plasma. The plasma samples were stored on −80° C. until analyzed.
# Compound I standard curves were prepared in rat plasma from 0.1 to 100 μg/mL. 50 μl aliquots of sample were placed in 1.5 mL microcentrifuge tubes. 20 μl of Compound II (10 μg/mL) was added as internal standard to each sample or standard. 20 μl of 30% trichloroacetic acid was then added to each sample or standard. The samples were mixed using a vortex mixer centrifuged for 10 min at 15,000 RPM using a tabletop centrifuge. The supernatant (approx. 120 μl) was removed and added to 100 μl of water in a 96-well plate. The samples were mixed again using a vortex mixer. 10 μl of each sample was injected onto an HPLC-MS for quantification.
# The HPLC-MS conditions for Compound I analysis are as follows: • Column: Phenomenex Fusion-RP or equivalent reversed-phase column, 5 um, 50×2 mm. • Flow rate: 0.6 mL/min. • Mobile phase A: 0.1% formic acid in water. • Mobile phase B: 0.1% formic acid in acetonitrile. • Gradient: 5-60% B in 1.5 min. • Mass spectrometer: Negative ion mode with electrospray ionization. • MS/MS: Compound I-Q1-m/e=296, Q3-m/e=234. • Compound II-Q1-m/e=331, Q3-m/e=201.
# Biapenem standard curves were prepared in 50% plasma-50% 1M MOPS buffer, pH=7.4 from 1 to 250 ug/mL. 20 uL of sample or standard was added into a 96-well deep well plate. Then 500 uL of 10% water-45% methanol-45% acetonitrile containing 2 ug/mL of meropenem was used as an internal standard. The plate was vortexed for 15 min. at 3,000 RPM. 50 uL of supernatant was removed and added 300 uL of water. 10 uL of samples were injected onto an HPLC-MS system for quantification.
# The HPLC-MS conditions for Biaphenem analysis are as follows: • Column: Supelco Discovery HS F5 or equivalent pentafluorophenyl column, 5 um, 50×2.1 mm. • Flow rate: 0.6 mL/min. • Mobile phase A: 0.1% formic acid in water. • Mobile phase B: 0.1% formic acid in acetonitrile. • Gradient: 5-70% B in 1.9 min. • Mass spectrometer: Positive ion mode with electrospray ionization. • MS/MS: Biapenem-Q1-m/e=350.8, Q3-m/e=110.1. • meropenem-Q1-m/e=384.1, Q3-m/e=141.1
# Plasma concentrations were fit using a two compartment IV infusion model (WinNonlinVersion 5.3, Pharsight Corp, Mountain View, Calif.).
# KPC-producing strains = experiment: Time-kill assays of Biapenem with Compound I (Example 4); assay type: cell-based, Enterobacteriaceae; settings: KPC-producing strains (Biapenem MICs of 16-32 ug/ml)
# Description: The evaluation of Compound I in combination with the carbapenem antibiotic Biapenem against multi-drug resistant strains of Enterobacteriaceae, including those producing serine carbapenemases were also conducted. Antibiotic potentiation activity of Compound I was studied in checkerboard MIC experiments and time-kill assays. The MICs of Biapenem were determined alone or in combination with Compound I added at fixed concentrations between 0.5 and 16 ug/ml) against characterized and engineered isolates producing various beta-lactamases, as well as in geographically diverse panels of multi-drug resistant strains of Enterobacteriaceae (including strains that express the most relevant beta-lactamases).
# [2] = Single-dose pharmacokinetics of Compound I across all preclinical species, summary statements incl. coadministration of Biapenem (Example 5); assay type: in vivo
# Description: (§1) Example 5 provides the single-dose pharmacokinetic studies of Compound I inpreclinical species, including intraperitoneal administration to Swiss-Webster mice and intravaneous administration to Sprague-Dawley rats, Beagle dogs, and Cynomologus monkeys.
# (§2) Intravaneous doses of Compound I were administered as 30-minute infusions. The pharmacokinetics of Compound I were also studied with coadministration of the carbapenem, Biapenem. Compound I concentrations were determined using an LC-MS detection method.
# [3] = Single-dose pharmacokinetics of Compound I, intravenous 30-minute infusion in Cynomologus monkeys (Example 5); assay type: in vivo; settings: Monkey; for half-life / AUC / Cmax: in vivo
# Description: as §1, §2
# [4] = 20 mg/kg Compound I in combination with 20 mg/kg Biapenem
structure (smiles),measurement,setting,value
C[C@@H](O)[C@H]1C(=O)N2C(C(=O)[O-])=C(SC3Cn4cnc[n+]4C3)[C@H](C)[C@H]12 (stereo partly shown) [Biapenem],Potency against P. aeruginosa,P. aeruginosa; Biapenem compared with meropenem,potency similar to meropenem
same,"Plasma pharmacokinetic parameters, alone versus in combination",[1],unchanged
same,AUC,[1]; [4],10100 ± 1130 ng·h/mL
same,clearance,[1]; [4],33.8 mL/min/kg
same,half-life,[1]; [4],13.2 ± 0.6 min
same,AUC,[1]; administered alone,8950 ± 890 ng·h/mL
same,clearance,[1]; administered alone,38.2 mL/min/kg
same,half-life,[1]; administered alone,12.6 ± 0.6 min
same,Biapenem Calc. Conc. in plasma,"[1]; sample r.p. # 7.10 (first line), 20 mg/kg Compound I in combination with 20 mg/kg Biapenem",0.100 µg/mL
same,Biapenem Calc. Conc. in plasma,"[1]; sample r.p. # 7.10 (second line), 20 mg/kg Compound I in combination with 20 mg/kg Biapenem",<0 µg/mL
same,Biapenem Calc. Conc. in plasma,"[1]; sample r.p. # 7.1, 20 mg/kg Compound I in combination with 20 mg/kg Biapenem",5.61 µg/mL
same,Biapenem Calc. Conc. in plasma,"[1]; sample r.p. # 7.2, 20 mg/kg Compound I in combination with 20 mg/kg Biapenem",7.98 µg/mL
same,Biapenem Calc. Conc. in plasma,"[1]; sample r.p. # 7.3, 20 mg/kg Compound I in combination with 20 mg/kg Biapenem",5.08 µg/mL
same,Biapenem Calc. Conc. in plasma,"[1]; sample r.p. # 7.4, 20 mg/kg Compound I in combination with 20 mg/kg Biapenem",6.47 µg/mL
same,Biapenem Calc. Conc. in plasma,"[1]; sample r.p. # 7.5, 20 mg/kg Compound I in combination with 20 mg/kg Biapenem",3.03 µg/mL
same,Biapenem Calc. Conc. in plasma,"[1]; sample r.p. # 7.6, 20 mg/kg Compound I in combination with 20 mg/kg Biapenem",1.89 µg/mL
same,Biapenem Calc. Conc. in plasma,"[1]; sample r.p. # 7.7, 20 mg/kg Compound I in combination with 20 mg/kg Biapenem",1.22 µg/mL
same,Biapenem Calc. Conc. in plasma,"[1]; sample r.p. # 7.8, 20 mg/kg Compound I in combination with 20 mg/kg Biapenem",0.103 µg/mL
same,Biapenem Calc. Conc. in plasma,"[1]; sample r.p. # 7.9, 20 mg/kg Compound I in combination with 20 mg/kg Biapenem",0.0321 µg/mL
same,Biapenem Calc. Conc. in plasma,"[1]; sample r.p. # 8.10 (first line), 20 mg/kg Compound I in combination with 20 mg/kg Biapenem",0.0587 µg/mL
same,Biapenem Calc. Conc. in plasma,"[1]; sample r.p. # 8.10 (second line), 20 mg/kg Compound I in combination with 20 mg/kg Biapenem",No Peak
same,Biapenem Calc. Conc. in plasma,"[1]; sample r.p. # 8.1, 20 mg/kg Compound I in combination with 20 mg/kg Biapenem",4.40 µg/mL
same,Biapenem Calc. Conc. in plasma,"[1]; sample r.p. # 8.2, 20 mg/kg Compound I in combination with 20 mg/kg Biapenem",5.21 µg/mL
same,Biapenem Calc. Conc. in plasma,"[1]; sample r.p. # 8.3, 20 mg/kg Compound I in combination with 20 mg/kg Biapenem",7.28 µg/mL
same,Biapenem Calc. Conc. in plasma,"[1]; sample r.p. # 8.4, 20 mg/kg Compound I in combination with 20 mg/kg Biapenem",2.71 µg/mL
same,Biapenem Calc. Conc. in plasma,"[1]; sample r.p. # 8.5, 20 mg/kg Compound I in combination with 20 mg/kg Biapenem",1.87 µg/mL
same,Biapenem Calc. Conc. in plasma,"[1]; sample r.p. # 8.6, 20 mg/kg Compound I in combination with 20 mg/kg Biapenem",1.52 µg/mL
same,Biapenem Calc. Conc. in plasma,"[1]; sample r.p. # 8.7, 20 mg/kg Compound I in combination with 20 mg/kg Biapenem",0.828 µg/mL
same,Biapenem Calc. Conc. in plasma,"[1]; sample r.p. # 8.8, 20 mg/kg Compound I in combination with 20 mg/kg Biapenem",0.0353 µg/mL
same,Biapenem Calc. Conc. in plasma,"[1]; sample r.p. # 8.9, 20 mg/kg Compound I in combination with 20 mg/kg Biapenem",0.0393 µg/mL
same,Biapenem Calc. Conc. in plasma,"[1]; sample r.p. # 9.10 (first line), 20 mg/kg Compound I in combination with 20 mg/kg Biapenem",0.196 µg/mL
same,Biapenem Calc. Conc. in plasma,"[1]; sample r.p. # 9.10 (second line), 20 mg/kg Compound I in combination with 20 mg/kg Biapenem",<0 µg/mL
same,Biapenem Calc. Conc. in plasma,"[1]; sample r.p. # 9.1, 20 mg/kg Compound I in combination with 20 mg/kg Biapenem",3.86 µg/mL
same,Biapenem Calc. Conc. in plasma,"[1]; sample r.p. # 9.2, 20 mg/kg Compound I in combination with 20 mg/kg Biapenem",7.34 µg/mL
same,Biapenem Calc. Conc. in plasma,"[1]; sample r.p. # 9.3, 20 mg/kg Compound I in combination with 20 mg/kg Biapenem",9.20 µg/mL
same,Biapenem Calc. Conc. in plasma,"[1]; sample r.p. # 9.5, 20 mg/kg Compound I in combination with 20 mg/kg Biapenem",4.90 µg/mL
same,Biapenem Calc. Conc. in plasma,"[1]; sample r.p. # 9.6, 20 mg/kg Compound I in combination with 20 mg/kg Biapenem",2.16 µg/mL
same,Biapenem Calc. Conc. in plasma,"[1]; sample r.p. # 9.7, 20 mg/kg Compound I in combination with 20 mg/kg Biapenem",1.69 µg/mL
same,Biapenem Calc. Conc. in plasma,"[1]; sample r.p. # 9.8, 20 mg/kg Compound I in combination with 20 mg/kg Biapenem",0.0705 µg/mL
same,Biapenem Calc. Conc. in plasma,"[1]; sample r.p. # 9.9, 20 mg/kg Compound I in combination with 20 mg/kg Biapenem",0.00349 µg/mL
O=C(O)C[C@@H]1CC[C@H](NC(=O)Cc2cccs2)B(O)O1 [Compound I],Time-kill: effect of the addition of Compound I to Biapenem,KPC-producing strains,significant bactericidal synergism
same,Enhancement of Biapenem potency by the addition of Compound I,P. aeruginosa; P. aeruginosa,no enhancement
same,"Plasma pharmacokinetic parameters, alone versus in combination",[1],unchanged
same,AUC,[1]; [4],10400 ± 1150 ng·h/mL
same,clearance,[1]; [4],32.5 mL/min/kg
same,half-life,[1]; [4],23.4 ± 6.6 min
same,AUC,[1]; administered alone,11000 ± 860 ng·h/mL
same,clearance,[1]; administered alone,33 mL/min/kg
same,half-life,[1]; administered alone,43.2 ± 9 min
same,Pharmacokinetic properties,"[2]; across all species (mice, rats, dogs, monkeys), single dose",linear and favorable pharmacokinetic properties
same,Dose dependence of clearance and volume of distribution,"[2]; across preclinical species, single dose",independent of dose
same,PK drug interactions between Compound I and Biapenem,[2]; coadministration of Biapenem,No PK drug interactions
same,CL or CL/F,[3]; 2 mg/kg IV,8.5 ± 1.2 mL/min/kg
same,CL or CL/F,[3]; 6 mg/kg IV,8.33 ± 1.3 mL/min/kg
same,CL or CL/F,[3]; 20 mg/kg IV,8 ± 0.5 mL/min/kg
same,half-life,"[3]; cynomolgus, 6 mg/kg IV",33 ± 7.2 min
same,AUC,"[3]; cynomolgus, 20 mg/kg IV",41800 ± 2530 ng·h/mL
same,Cmax,"[3]; cynomolgus, 20 mg/kg IV",54900 ± 3320 ng/mL
same,half-life,"[3]; cynomolgus, 20 mg/kg IV",113 ± 104 min
same,AUC,[3]; 2 mg/kg IV,3960 ± 510 ng·h/mL
same,Cmax,[3]; 2 mg/kg IV,5350 ± 280 ng/mL
same,half-life,[3]; 2 mg/kg IV,34.2 ± 1.8 min
same,AUC,[3]; 6 mg/kg IV,12200 ± 1890 ng·h/mL
same,Cmax,[3]; 6 mg/kg IV,17000 ± 1680 ng/mL
